The experiment concerns the target T1, CDK4/Cyclin D1 (Homo sapiens, UniProt P11802).
T1 construct: made in house; host or cells: insect cells (crude cell lysate)
Put plainly: Cyclin D1/cdk4 phosphoRb in vitro kinase assay. Format: biochemical. The following applies: for IC50: insect cell lysates expressing cyclin D1 and cdk4, GST-Rb substrate, 32P-ATP, read-out: IC50, inhibition of CDK4/Cyclin D1; for relative potency of inhibition of CDK4/cyclin D1: compared with Compound 4 and Compound 1 (esters or ethers). The text has this: The efficacy of a compound in inhibiting the activity of cyclin-dependent kinases can be determined by several methods well known in the art, such as a kinase assay, as described in the Examples section herein, or as described in Losiewics, M. D., et al. (1994) Biochem. Biophys. Res. Commun. 201, 589. Thus, a complex containing the cyclin-dependent kinase and a cyclin is first isolated either from a recombinant source, or immunoprecipitated from cells synchronized at the stage at which a particular cyclin-dependent kinase is present at high levels in the cell. The immunoprecipitates are then incubated in the presence of radiolabelled ATP and an appropriate substrate with various amounts of the inhibitor. The amount of radioactivity associated with the substrate protein can then be determined by various methods well known in the art. The substrate used for the kinase assay will depend on the specific kinase. Typically, histone H1 or CDK1 S1 is used as a substrate for the CDC2 kinase and the retinoblastoma protein is used as a substrate in a kinase assay for CDK4. The kinases, cyclins, and substrates used in the in vitro kinase assay can be proteins isolated from mammalian cells, or alternatively, they can be proteins produced recombinantly, such as in E. Coli.
This example is an illustration of the cyclin-dependent kinase inhibitory activity of the compounds of the invention. The kinase inhibitory activity of several compounds of the invention was determined using an in vitro kinase assay in which the kinase activity of the CDK4 kinase was measured using a Cyclin D1/cdk4 phosphoRb Assay. Briefly, the assay employs cell lysates from insect cells expressing cyclin D1 and cdk4 kinase. The cyclin/cdk lysate is combined in a microtitre-type plate along with a kinase compatible buffer, ^32 P-labeled ATP, a GST-Rb fusion protein, and the test agent. The kinase reaction is allowed to proceed with the radiolabeled ATP, then effectively stopped by the addition of a large excess of unlabeled ATP. The GST-Rb protein is sequestered on a GSH-Sepharose bead suspension, washed, resuspended in scintilant, and ^32 P activity detected in a scintillation counter. The concentration of compound at which 50% of the kinase activity was blocked (IC50) was calculated for each compound.

SMILES strings stand for the structures.

We go through 6 compounds from patent US5733920A, “Inhibitors of cyclin dependent kinases” (Mitotix, Inc., priority 1995, dated 1998).

T1 sequence (P11802 whole entry, species assumed): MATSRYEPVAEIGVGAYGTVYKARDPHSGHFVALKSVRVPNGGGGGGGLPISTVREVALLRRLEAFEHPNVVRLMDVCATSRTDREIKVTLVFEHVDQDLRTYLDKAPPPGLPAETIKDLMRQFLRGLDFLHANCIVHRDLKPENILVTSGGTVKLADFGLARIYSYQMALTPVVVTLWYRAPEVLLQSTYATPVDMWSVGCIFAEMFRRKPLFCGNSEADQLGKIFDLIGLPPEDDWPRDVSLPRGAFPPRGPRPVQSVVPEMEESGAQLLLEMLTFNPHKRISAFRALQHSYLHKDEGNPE
T1 sequence (P24385 whole entry partner, species assumed): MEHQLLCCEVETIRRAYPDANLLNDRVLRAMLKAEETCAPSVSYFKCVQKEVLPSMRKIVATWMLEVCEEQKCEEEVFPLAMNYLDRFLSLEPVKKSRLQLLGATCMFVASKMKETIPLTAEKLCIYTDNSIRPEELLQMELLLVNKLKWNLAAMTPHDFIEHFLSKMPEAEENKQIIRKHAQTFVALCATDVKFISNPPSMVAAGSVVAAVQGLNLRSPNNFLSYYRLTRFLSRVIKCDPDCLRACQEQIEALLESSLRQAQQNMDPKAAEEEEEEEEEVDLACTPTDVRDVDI

Turning to `COc1cc(OC)c2c(=O)cc(-c3ccccc3Cl)oc2c1[C@@H]1CN(C)CC[C@@H]1O` (relative stereo) [Compound 13], the IC50 is < 250 µM.
On the same count and under the same terms, to `CN1CC[C@H](O)[C@H](c2c(O)cc(O)c3c(=O)cc(-c4ccccc4Cl)oc23)C1` (relative stereo) [Compound 14] belongs < 150 µM; to `COc1cc(OC)c2c(=O)cc(-c3ccccc3Cl)oc2c1C1=CCN(C)CC1` [Compound 1], < 250 µM.
For `CN1CC=C(c2c(O)cc(O)c3c(=O)cc(-c4ccccc4Cl)oc23)CC1` [Compound 3], the “relative potency of inhibition of CDK4/cyclin D1” value was “much more potent inhibitors of CDK4/cyclin D1” and the IC50 is < 50 µM.
With `COc1cc(OC)c2c(=O)cc(-c3ccccc3Cl)oc2c1C1CCN(C)CC1=O` (centres unmarked) [Compound 4], the IC50 turned out to be 230 µM.
As to `CN1CCC(c2c(O)cc(O)c3c(=O)cc(-c4ccccc4Cl)oc23)C(=O)C1` (centres unmarked) [Compound 5], the “relative potency of inhibition of CDK4/cyclin D1” value was “much more potent inhibitors of CDK4/cyclin D1” and the IC50 was < 50 µM.
